This is an account of results in ChEMBL document CHEMBL1147768, “Novel histamine H3 receptor antagonists based on the 4-[(1H-imidazol-4-yl)methyl]piperidine scaffold” (Bioorg Med Chem Lett, 2006).

The target in experiment [1] is T1, Histamine H3 receptor (Cavia porcellus, UniProt Q9JI35). Description: Displacement of [3H]N-alpha-methylhistamine from histamine H3 receptor in guinea pig brain. A general note: Loss of bound radioactivity is the signal in a displacement assay; it reports binding, not function.
The target in experiment [2] is T1, Histamine H3 receptor. Kind of experiment: Antagonist potency against histamine H3 receptor in an electrically stimulated guinea pig ileum. It is filed as functional, tissue-based. Conditions: read-out: pA2 (converted).
Another experiment addresses Cytochrome P450 2D6 (Homo sapiens, UniProt P10635). Kind of experiment: Inhibition of CYP2D6 in human liver microsomes. The format is ADME, Microsome.
Experiment [3] concerns the target Histamine H3 receptor (Homo sapiens, UniProt Q9Y5N1). Description: Displacement of [3H]N-alpha-methylhistamine from histamine H3 receptor in human brain.
A further experiment deals with Histamine H1 receptor (Cavia porcellus, UniProt P31389). Kind of experiment: Displacement of [3H]N-alpha-methylhistamine from histamine H1 receptor in guinea pig brain.
Chain of Histamine H1 receptor (P31389 whole entry): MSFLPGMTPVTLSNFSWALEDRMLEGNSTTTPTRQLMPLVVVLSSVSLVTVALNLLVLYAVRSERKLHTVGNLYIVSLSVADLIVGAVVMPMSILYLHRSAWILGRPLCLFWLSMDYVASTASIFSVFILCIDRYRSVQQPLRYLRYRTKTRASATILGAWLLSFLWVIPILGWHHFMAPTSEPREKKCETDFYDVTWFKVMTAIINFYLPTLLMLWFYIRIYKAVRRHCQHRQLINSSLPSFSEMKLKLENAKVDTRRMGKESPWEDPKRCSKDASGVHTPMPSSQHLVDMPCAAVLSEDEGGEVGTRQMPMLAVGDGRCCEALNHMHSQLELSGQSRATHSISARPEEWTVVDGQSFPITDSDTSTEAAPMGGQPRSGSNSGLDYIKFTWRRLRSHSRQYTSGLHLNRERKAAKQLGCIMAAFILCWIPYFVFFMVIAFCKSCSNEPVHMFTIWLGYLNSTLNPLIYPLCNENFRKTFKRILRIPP

T1 sequence (Q9JI35 whole entry): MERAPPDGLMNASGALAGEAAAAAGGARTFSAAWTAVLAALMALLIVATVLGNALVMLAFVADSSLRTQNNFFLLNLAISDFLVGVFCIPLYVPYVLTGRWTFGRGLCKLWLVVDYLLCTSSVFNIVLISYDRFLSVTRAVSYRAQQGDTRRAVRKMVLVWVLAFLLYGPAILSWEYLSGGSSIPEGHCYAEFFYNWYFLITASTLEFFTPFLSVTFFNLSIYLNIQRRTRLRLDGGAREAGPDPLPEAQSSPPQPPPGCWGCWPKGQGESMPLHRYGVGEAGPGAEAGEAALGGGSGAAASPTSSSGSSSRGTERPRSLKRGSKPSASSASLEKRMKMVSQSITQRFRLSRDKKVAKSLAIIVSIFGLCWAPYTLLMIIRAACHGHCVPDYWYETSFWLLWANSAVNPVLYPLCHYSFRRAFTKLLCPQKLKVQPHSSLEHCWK
Chain of Histamine H3 receptor (Homo sapiens, UniProt Q9Y5N1) (Q9Y5N1 whole entry): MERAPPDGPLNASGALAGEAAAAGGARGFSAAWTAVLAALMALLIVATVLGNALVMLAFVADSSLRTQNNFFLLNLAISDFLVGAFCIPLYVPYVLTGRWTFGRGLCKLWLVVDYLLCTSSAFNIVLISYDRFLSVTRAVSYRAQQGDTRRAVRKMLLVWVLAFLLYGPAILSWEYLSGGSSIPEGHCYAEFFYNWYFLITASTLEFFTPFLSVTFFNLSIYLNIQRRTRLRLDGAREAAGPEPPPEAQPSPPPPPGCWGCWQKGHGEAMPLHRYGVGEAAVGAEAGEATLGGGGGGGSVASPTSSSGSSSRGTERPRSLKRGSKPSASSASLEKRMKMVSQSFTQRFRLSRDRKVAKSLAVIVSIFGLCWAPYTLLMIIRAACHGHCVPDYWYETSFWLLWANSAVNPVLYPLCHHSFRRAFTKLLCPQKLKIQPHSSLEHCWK
Chain of Cytochrome P450 2D6 (P10635 whole entry): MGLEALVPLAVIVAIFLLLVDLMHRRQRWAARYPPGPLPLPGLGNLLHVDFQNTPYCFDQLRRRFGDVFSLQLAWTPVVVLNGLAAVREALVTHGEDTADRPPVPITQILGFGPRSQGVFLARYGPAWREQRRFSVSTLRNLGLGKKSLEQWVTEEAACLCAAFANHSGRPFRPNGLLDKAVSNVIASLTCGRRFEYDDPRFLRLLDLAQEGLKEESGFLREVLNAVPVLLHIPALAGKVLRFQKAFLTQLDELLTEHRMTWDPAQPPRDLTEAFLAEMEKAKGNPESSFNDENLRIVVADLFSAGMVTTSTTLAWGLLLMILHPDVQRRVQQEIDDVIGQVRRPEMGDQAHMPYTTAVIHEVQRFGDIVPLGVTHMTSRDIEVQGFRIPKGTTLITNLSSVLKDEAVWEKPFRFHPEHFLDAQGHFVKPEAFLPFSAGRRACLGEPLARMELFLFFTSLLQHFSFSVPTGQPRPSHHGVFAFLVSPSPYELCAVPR

`COC(=O)c1ccc(OCCC(=O)N2CCC(Cc3c[nH]cn3)CC2)cc1`: on Histamine H3 receptor [1], the Ki (usually a measure of affinity in units of concentration, obtained from inhibition or displacement) is 625 nM. `CN(C(=O)CCN1CCC(Cc2cnc[nH]2)CC1)c1ccc(Cl)cc1` returned a Ki on Histamine H3 receptor [1] of 60 nM. On Histamine H3 receptor [1], `O=C(CCN1CCC(Cc2cnc[nH]2)CC1)NC1CCCCC1` gave a Ki of 3 nM. Also, the Kb at Histamine H3 receptor [2] was 6.31 nM. For `O=C(CCCCN1CCC(Cc2cnc[nH]2)CC1)Nc1ccc(Cl)cc1`, on Histamine H3 receptor [1], the affinity, expressed as Ki, was 40 nM. Consider `c1ccc(CCCCN2CCC(Cc3cnc[nH]3)CC2)cc1`, for which the inhibition constant Ki on Histamine H3 receptor [1] turned out to be 5 nM. The Kb on Histamine H3 receptor [2] is 6.31 nM. Taken in the same sequence, the figures for `CCCCCCC(=O)N1CCC(Cc2c[nH]cn2)CC1` were 18 nM and 39.8 nM. On to `c1ccc(OCCCN2CCC(Cc3c[nH]cn3)CC2)cc1`, for which, at Histamine H3 receptor [2], the Kb was 5.01 nM. At Histamine H3 receptor [1], `Clc1cccc(OCCCN2CCC(Cc3cnc[nH]3)CC2)c1` came in with a Ki of 2 nM. On Histamine H3 receptor [2], the Kb was 12.6 nM. In the case of `O=C(CCN1CCC(Cc2c[nH]cn2)CC1)Nc1cccc(F)c1`, the figures for the Ki at Histamine H3 receptor [1] and at Histamine H3 receptor [3] were 0.2 nM and 1.9 nM, respectively. The Kb at Histamine H3 receptor [2] is 0.126 nM. It took 100 nM to reach half-maximal inhibition against Cytochrome P450 2D6 (IC50). As to `O=C(CCCN1CCC(Cc2cnc[nH]2)CC1)Nc1ccc(Cl)cc1`, affinity on Histamine H3 receptor [1] was put at a Ki of 17 nM. For the same molecule, the Kb on Histamine H3 receptor [2] was 5.01 nM. The molecule `O=C(NCCN1CCC(Cc2cnc[nH]2)CC1)c1ccc(Cl)cc1` returned a Ki on Histamine H3 receptor [1] of 9 nM. In addition, the Kb at Histamine H3 receptor [2] is 12.6 nM. As for `O=S(=O)(CCCN1CCC(Cc2c[nH]cn2)CC1)c1ccccc1`, the affinity at Histamine H3 receptor [1] corresponds to a Ki of 25 nM. For the same molecule, on Histamine H3 receptor [2], the Kb was 79.4 nM. `O/N=C/c1ccc(OCCCN2CCC(Cc3c[nH]cn3)CC2)cc1` yielded a Ki on Histamine H3 receptor [1] of 44 nM.

`Clc1cccc(NCCCN2CCC(Cc3cnc[nH]3)CC2)c1` had a Ki on Histamine H3 receptor [1] of 2 nM. Besides, the Kb at Histamine H3 receptor [2] is 3.98 nM. In turn, `O=S(=O)(CCN1CCC(Cc2c[nH]cn2)CC1)Nc1ccc(Cl)cc1` returned a Ki at Histamine H3 receptor [1] of 170 nM. Molecule `O=C(NCCCN1CCC(Cc2cnc[nH]2)CC1)c1ccc(Cl)cc1` registered a Ki at Histamine H3 receptor [1] of 13 nM. Take `O=C(CCC(=O)N1CCC(Cc2c[nH]cn2)CC1)Nc1ccc(Cl)cc1`: the Ki on Histamine H3 receptor [1] amounted to 970 nM. In turn, `O=C(CCCc1ccccc1)N1CCC(Cc2cnc[nH]2)CC1` had a Ki at Histamine H3 receptor [1] of 9 nM. For the same molecule, the Kb at Histamine H3 receptor [2] was 15.8 nM. Consider `N#Cc1ccc(OCCCN2CCC(Cc3c[nH]cn3)CC2)cc1`, for which the affinity at Histamine H3 receptor [1], expressed as Ki, was 20 nM. In turn, `COc1ccc(NC(=O)CCN2CCC(Cc3cnc[nH]3)CC2)cc1` came in with a Ki at Histamine H3 receptor [1] of 3 nM. Further, the Kb on Histamine H3 receptor [2] is 1.58 nM. On to `O=C(CCN1CCC(Cc2c[nH]cn2)CC1)Nc1ccc(Cl)cc1`, for which the Kb on Histamine H3 receptor [2] is 0.0794 nM. Half-maximal inhibition against Cytochrome P450 2D6 (IC50) required 40 nM. The Ki at Histamine H3 receptor [3] was determined as 1.7 nM; at Histamine H1 receptor, 290 nM. Regarding `O=C(CCN1CCC(Cc2c[nH]cn2)CC1)Nc1cccc(Cl)c1`, on Histamine H3 receptor [2], the Kb is 0.158 nM. For the same molecule, affinity at Histamine H3 receptor [3] was put at a Ki of 0.4 nM.

Regarding `Clc1ccc(CCCCN2CCC(Cc3cnc[nH]3)CC2)cc1`, at Histamine H3 receptor [1], the Ki was 6 nM. For the same molecule, the Kb on Histamine H3 receptor [2] was 1.58 nM.

Molecule `COC(=O)c1ccc(NC(=O)CCN2CCC(Cc3cnc[nH]3)CC2)cc1` returned a Ki at Histamine H3 receptor [1] of 3 nM. The Kb on Histamine H3 receptor [2] was 1.58 nM. For `O=C(CCOc1ccccc1)N1CCC(Cc2cnc[nH]2)CC1`, the Kb at Histamine H3 receptor [2] is 15.8 nM. `O=C(CCN1CCC(Cc2c[nH]cn2)CC1)NCc1ccc(Cl)cc1` gave a Ki at Histamine H3 receptor [1] of 21 nM. As to `O=C(CCN1CCC(Cc2c[nH]cn2)CC1)Nc1ccccc1`, on Histamine H3 receptor [1], the Ki was 2 nM. At Histamine H3 receptor [2], the Kb is 1.26 nM. As for `CCCCCCCN1CCC(Cc2cnc[nH]2)CC1`, the Kb at Histamine H3 receptor [2] was 2.51 nM. With `c1nc(CC2CCNCC2)c[nH]1` [IMMEPIP], the affinity at Histamine H3 receptor [1] corresponds to a Ki of 0.4 nM.
